This note sets out measurements from publication PMC12040169 (PLOS Biology, 2025).

The nature of the data set: in vitro. Particulars: human, hela cells, % viability.

As a reminder, the viability is a read-out of living cells in per cent, often relative to untreated cells. As for `O=c1[nH]c(=S)[nH]c2c1CCC2` [CBK113252], the viability at 28.5 h, 10 µM was determined as 92.4%. On to `CC(=O)c1cc(C(=O)N2CCC(O)(c3ccccc3C)CC2)cs1` [CBK282532], for which the viability at 28.5 h, 10 µM came out at 92.8%. For `Oc1ccc(Cn2c(-c3ccc(O)cc3)nc3ccccc32)cc1` [CBK291187] the value was 90.3%. For the molecule `CC(C)(C)c1ccc(-c2nc3ncccc3cc2O)cc1` [CBK073703], the viability at 28.5 h, 10 µM is 74.5%. In the case of `Cc1cccc(C(=O)N2CCN(Cc3cc(=O)n4ccsc4n3)CC2)c1` [CBK305037], the viability at 28.5 h, 10 µM came to 91%. For `Cc1cccc(NC(c2ccc(C)s2)c2ccc3ccc(C)nc3c2O)n1` (stereo not shown) [CBK266408] the value was 94.2%; for `CCC(CNC(=O)c1coc(COc2ccc3sc(C)nc3c2)n1)OC` (stereo not shown) [CBK307248], 72.3%.

`COc1ccc(CC(=O)N2CCCCC2c2ccc(Cc3cccc(F)c3)nc2)cc1` (stereo not shown) [CBK286493]: the viability at 28.5 h, 10 µM amounted to 90.3%.

For `COc1ccc(C2CC(c3nc4ccccc4[nH]3)=NN2C(=O)CCN2CCCCC2)cc1` (stereo not shown) [CBK267673], the viability at 28.5 h, 10 µM was 99.8%. For `C/C(=N/Nc1nc[nH]n1)c1ccc(Cl)c(Cl)c1` [CBK028722] the value was 80%; for `O=S(=O)(NCCc1csc(-c2cccnc2)n1)c1cccnc1` [CBK287546], 91.8%; for `O=C(OCc1ccccc1)N1CCN(c2ccccc2)CC1` [CBK200241], 116%. For `CC(CCN(C)CCN(C)C)c1ccccc1` (stereo not shown) [CBK261871] the value was 87.6%; for `COc1ncc(-c2nc(NC(=O)Cc3cc(F)c(F)c(F)c3)cnc2-c2cccc(C)c2)c(OC)n1` [CBK036717], 96.4%; for `C=CCn1c2cc(C)sc2c2cnn(CC(=O)NC(C)C)c(=O)c21` [CBK284150], 89%. For `CC(C)(C)OC(=O)NCc1ccc(CNCc2cccc(Cl)c2)cc1` [CBK056704] the value was 108%; for `COc1ccc(-n2c(=O)[nH]cc(C(=O)Nc3cccc(Cl)c3C)c2=O)cc1` [CBK287549], 118%.

Turning to `O=C(c1cncnc1)N1CC[C@H](c2nc3cc(F)ccc3[nH]2)C1` [CBK289376], the viability at 28.5 h, 10 µM amounted to 96.8%. For `N=C(N)NCCc1c[nH]c2ccccc12` [CBK024011G] the value was 107%; for `CCC1CCCCN1C(=O)Cc1c(C)nc(-c2cccnc2)[nH]c1=O` (stereo not shown) [CBK306240], 91.6%. `O=C(Nc1cc(Cl)cc(Cl)c1)c1ccc([N+](=O)[O-])s1` [CBK066840]: the viability at 28.5 h, 10 µM amounted to 95.2%. For `O=c1oc(-c2ccco2)nn1Cc1ccc([N+](=O)[O-])cc1` [CBK295593], the viability at 28.5 h, 10 µM worked out at 94.8%. Take `CC(C)Cn1c(=O)[nH]c2ncc(-c3cccc4cccnc34)nc21` [CBK064400]: the viability at 28.5 h, 10 µM amounted to 60.5%. Take `CN1C(=O)COc2ccccc2C/C=C/C[C@@H]2[C@H]1CCCN2S(=O)(=O)c1cccnc1` [CBK292067]: the viability at 28.5 h, 10 µM is 102%. In the case of `CC(C)NC(=O)C1(Cc2ccc(-c3ccccc3F)cc2)CCN(C(=O)C(C)C)CC1` [CBK285754], the viability at 28.5 h, 10 µM was determined as 102%.

On to `COc1cc(F)cc(OC2CCNCC2)c1NC(=O)c1cnccn1` [CBK050296T], for which the viability at 28.5 h, 10 µM is 90.3%. In the case of `O=C(CC1S/C(=N/N=C/c2ccccc2C(=O)O)NC1=O)Nc1ccccc1` (stereo not shown) [CBK264515], the viability at 28.5 h, 10 µM turned out to be 99.7%. In the case of `Nc1nonc1C(=O)NCCNCc1cccs1` [CBK267305] it was 95.2%; in that of `O=C(Cc1ccc(Cl)c(Cl)c1)N1CCC2(CCN(C(=O)c3cc(F)c(F)cc3F)C2)C1` (stereo not shown) [CBK131386], 95.9%. In the case of `COc1ccccc1NC(=O)CN(c1ccc(Br)cc1)S(C)(=O)=O` [CBK265254] it was 99.3%; in that of `CCCC(=O)c1ccc(S(=O)(=O)N2CCN(Cc3ccc(O)c(F)c3)CC2)cc1` [CBK062959], 111%; in that of `CC(C)(C)n1cc2c(n1)[C@H]1CN(C(=O)CN3CCCC3=O)C[C@H]1CC2` [CBK283401], 89.2%. For `C=C(C)CNC(=O)c1cc(Br)cnc1N(C)S(C)(=O)=O` [CBK076498] the value was 94.6%; for `C=CCn1c(CCCNC=O)nc2ccccc21` [CBK269375], 94.2%; for `COc1cc(OC)cc(-c2[nH][nH]c(=O)c2CCN)c1` [CBK288414], 110%. With `CC(C)(C)OC(=O)NC1CCC(NCc2ccccc2Br)CC1` (stereo not shown) [CBK056684], the viability at 28.5 h, 10 µM stood at 91.5%. For `Cc1cc(OCC(O)CN2CCN(CCO)CC2)cc(C)c1Cl` (stereo not shown) [CBK278248C], the viability at 28.5 h, 10 µM was determined as 92.7%. For `O=[N+]([O-])c1ccc(Oc2cccc(Cl)c2Cl)c(C(F)(F)F)c1` [CBK002594] the value was 82.8%; for `Cc1nc(C(F)(F)F)ccc1C(=O)N(C)CCN1CCCCC1` [CBK281917], 87.3%. For `COc1ccc(C(C)C)cc1-c1nccnc1NCc1ccc2c(c1)OCO2` [CBK036683], the viability at 28.5 h, 10 µM turned out to be 81%.

Turning to `Cc1ccc(C(=O)N2CCN(Cc3cc(=O)n4ccsc4n3)CC2)cn1` [CBK305700], the viability at 28.5 h, 10 µM worked out at 89.4%. For `OC1CCn2c1nc1cc(Cl)ccc12` (stereo not shown) [CBK113623], the viability at 28.5 h, 10 µM came out at 79.2%.

With `COc1ccc(CNC(=O)c2cnc(-c3ccc(F)cc3)c(-c3ccc(C(C)=O)s3)c2)cc1` [CBK036577], the viability at 28.5 h, 10 µM is 90.7%. Turning to `O=C(Nc1ccc(C(=O)Nc2cccc(-c3nc4ccccc4o3)c2)cc1)c1ccc([N+](=O)[O-])cc1` [CBK262606], the viability at 28.5 h, 10 µM came to 96.6%. In the case of `COc1cccc(Oc2nccnc2-c2ccc(F)cc2)c1` [CBK106897] it was 93.5%; in that of `CCOC(=O)c1c(C)n(-c2ccc(C)cc2)c2ccc(O)c(CN(C)C)c12` [CBK263499C], 78.5%; in that of `COc1ccc(C)cc1NC(=O)NC1CCN(Cc2ccccc2)CC1` [CBK267095], 99.2%.

Regarding `O=CNCCCc1nc2ccccc2n1CCc1ccccc1` [CBK269393], the viability at 28.5 h, 10 µM turned out to be 89.5%. Turning to `COc1ccc2[nH]cc(CCNC(=O)c3cc(-c4cccc(NC(C)=O)c4)cnc3N(C)S(C)(=O)=O)c2c1` [CBK076599], the viability at 28.5 h, 10 µM was determined as 101%.

As for `O=C(Nc1ccc2c(c1)OCO2)Nc1c(Br)cnc2ncccc12` [CBK105596], the viability at 28.5 h, 10 µM amounted to 93.4%.

As to `Cc1nc(CCNc2ccc(-c3nc(C)c(C)c(=O)[nH]3)cn2)cs1` [CBK305497], the viability at 28.5 h, 10 µM amounted to 107%. For `COc1cc(C)nc(N2CCN(C(=O)CCc3ccsc3)CC2)n1` [CBK304572] the value was 87.6%; for `O=C(O)CS(=O)(=O)c1ccccc1C(=O)O` [CBK261083], 98.9%; for `CN(C(=O)c1cc[nH]n1)C1CCN(c2ncnc3ccccc23)CC1` [CBK305916], 79%. For the molecule `COc1ccc([N+](=O)[O-])cc1NC(=O)C1(c2ccc(OC)c(OC)c2)CCOCC1` [CBK266243], the viability at 28.5 h, 10 µM came to 98.2%. Consider `NC(=O)c1ccccc1NC(=O)CCSc1ccc([N+](=O)[O-])cc1Cl` [CBK266396], for which the viability at 28.5 h, 10 µM is 80.1%. In the case of `CCOc1c(Br)cc(CNc2nc[nH]n2)cc1OC` [CBK268009] it was 104%; in that of `CCOC(=O)CSc1nc(=O)cc(N)n1Cc1ccc(F)cc1` [CBK269938], 91.1%.

Regarding `COCC(=O)NC1CCN(CC2(c3ccccc3F)CCCC2)CC1` [CBK284850], the viability at 28.5 h, 10 µM was 114%. Turning to `Cc1cccc(N(CC(=O)Nc2ccc3c(c2)oc2ccccc23)S(=O)(=O)c2ccccc2)c1` [CBK264813], the viability at 28.5 h, 10 µM turned out to be 101%.

As for `CCOc1ccc(S(=O)(=O)N2CCCCC2)cc1-c1nc2c(C(C)(C)C)nn(C)c2c(=O)[nH]1` [CBK265119], the viability at 28.5 h, 10 µM was 113%. For `O=C(CN1CCN(S(=O)(=O)c2ccc(F)cc2)CC1)Nc1cccc(C(F)(F)F)c1` [CBK071925] the value was 92.7%. In the case of `O=C(Nc1nnc(-c2ccco2)o1)c1ccc2c(c1)CCCC2` [CBK287425] it was 79.1%; in that of `Cn1c(=O)oc2ccc(C(=O)Nc3cccc(-c4ccc(F)cc4)c3)cc21` [CBK286023], 84.9%; in that of `CC1CCC(NC(=O)CN2C3CCC2CC(O)(c2ccco2)C3)CC1` (stereo not shown) [CBK284036], 91%. In the case of `Cc1ccc(S(=O)(=O)c2ccc(C)c(S(=O)(=O)N3CCCC3)c2)cc1S(=O)(=O)N1CCCC1` [CBK261772] it was 78.9%; in that of `CCNc1ncc(C(=O)N2CCC(Nc3cccnc3)CC2)s1` [CBK304047], 99.6%; in that of `Cc1ccc(NC(=O)Nc2ccc3cc(Br)cnc3n2)c(C)c1` [CBK063269], 85.8%. `COc1ccc(NS(=O)(=O)c2ccc(OCC(=O)N3CCN(C)CC3)cc2)cc1Cl` [CBK269565]: the viability at 28.5 h, 10 µM worked out at 85.8%. `COc1ccc(-c2cnn(-c3ccc(OC(F)(F)F)cc3)n2)cc1` [CBK112773]: the viability at 28.5 h, 10 µM was found to be 87.6%.

On to `CC1CCC(N(Cc2nnc(C(C)C)o2)CC2CCCO2)CC1` (stereo not shown) [CBK305169], for which the viability at 28.5 h, 10 µM is 89.7%. For `CN1CCCCCC1c1nc(-c2ccccc2)nn1CCCO` (stereo not shown) [CBK307653] the value was 95.9%; for `CCc1cccc2c(CN3CCc4nc(C)[nH]c(=O)c4C3)c[nH]c12` [CBK283931], 94.6%.

As to `CCCC(=O)N1CCN(Cc2ccc3c(c2)OCO3)CC1` [CBK074367], the viability at 28.5 h, 10 µM turned out to be 92.7%. As for `CN(C)Cc1cc(CN(C)C)c(O)c(CCc2ccccc2)n1` [CBK278316C], the viability at 28.5 h, 10 µM amounted to 90.9%. In the case of `COc1cc2c(cc1OC)C1c3ccccc3NC(c3ccc(F)cc3)N1CC2` (stereo not shown) [CBK286191] it was 102%. For `O=C(O)c1cccc(NS(=O)(=O)c2cccc(Cl)c2Cl)c1` [CBK155686] the value was 94.7%.

For the molecule `CNC(=O)c1ccc(NC(=O)CC(C)(C)CC(=O)O)cc1` [CBK296615], the viability at 28.5 h, 10 µM was determined as 95.8%.

In the case of `COc1ccc([C@@]23CC[C@H](NC(=O)CS(=O)(=O)c4ccccc4)C[C@@H]2N(C)CC3)cc1OC` [CBK036445], the viability at 28.5 h, 10 µM is 105%.
